Data published in patent US7390833B2, “Method for treating ADAMTS-5-associated disease” (Wyeth, priority 2003, dated 2008).

Tests used:
[1] = biological target: T1, ADAMTS-5 (Agg-2), purified recombinant human Aggrecanase-2 (Ag2t-Phe628-Strep) (Homo sapiens, UniProt Q9UNA0); test: Inhibition of aggrecanase activity of ADAMTS-5 (Agg-2), continuous fluorescent quenched-peptide assay (WAKB-5 substrate); format: biochemical; conditions: concentration that inhibits 50% of the aggrecanase activity of ADAMTS-5 (Agg-2); substrate 25 μM, pH 7.4, room temperature
T1 construct: the form used is denoted as Ag2t-Phe628-Strep (MW=41,737)
T1 sequence (Q9UNA0 262-628): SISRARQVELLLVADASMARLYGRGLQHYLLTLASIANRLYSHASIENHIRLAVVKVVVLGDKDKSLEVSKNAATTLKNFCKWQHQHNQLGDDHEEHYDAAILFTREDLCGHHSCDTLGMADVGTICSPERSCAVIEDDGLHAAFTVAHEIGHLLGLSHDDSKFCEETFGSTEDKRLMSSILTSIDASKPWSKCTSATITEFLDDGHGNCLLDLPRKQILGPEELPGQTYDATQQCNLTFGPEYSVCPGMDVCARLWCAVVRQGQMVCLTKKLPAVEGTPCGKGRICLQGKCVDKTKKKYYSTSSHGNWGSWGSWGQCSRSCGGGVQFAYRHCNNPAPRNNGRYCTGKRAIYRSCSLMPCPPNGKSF
Experimental: The biaryl sulfonamide compounds of the present invention were tested for their ability to inhibit the aggrecanase activity of ADAMTS-4 (Agg-1) and ADAMTS-5 (Agg-2).
A continuous assay was used in which the substrate upon which Agg-1 and […] acts is a synthetic peptide containing a fluorescent group that is quenched by energy transfer. Cleavage of the peptide by the aggrecanase enzyme results in a large increase in fluorescence. The initial rates of the reaction are compared to the initial rates of reactions containing the biaryl sulfonamide compounds in order to assess the inhibitor potency of the compounds.
The source of enzyme in the assay is purified recombinant human Aggrecanase-2. More specifically, the form used is denoted as Ag2t-Phe628-Strep (MW=41,737). This form is truncated relative to the full-length enzyme and contains an affinity tag. Aliquots of this enzyme were stored at −80° C. in 25 mM Tris (pH 8.0), 100 mM NaCl, 5 mM CaCl2, 10 μM ZnCl2, 10% glycerol.
The substrate in the assay is a synthetic peptide that is designed after a portion of brevican, one of the naturally occurring substrates of Aggrecanase-2. […] WAKB-5 (mass=1740) was custom synthesized by AnaSpec, Inc. (San Jose, Calif.) and was >95% pure based on HPLC analysis. […] Stock solutions of the substrate were prepared with MilliQ water and aliquots were stored at −80° C. The concentration of this substrate stock was spectrophotometrically determined using the extinction coefficient at 354 nm of 18,172 M^−1 cm^−1.
The assay buffer (pH 7.4) consisted of 50 mM Hepes, 100 mM NaCl, 5 mM CaCl2, 0.1% CHAPS, 5% glycerol. Each well of black polystyrene 96-well or 384-well plates contained a reaction consisting of assay buffer, purified Agg-2 (diluted with assay buffer), and varied concentrations of inhibitor (prepared by serial dilution in DMSO in 96-well polypropylene plates). The plates were then incubated at room temperature for 10 minutes. The enzymatic reactions were initiated by adding substrate to a final concentration of 25 μM and were mixed by pipetting up and down. The initial rates of the cleavage reactions were determined at room temperature with a fluorescence plate reader immediately after substrate addition.
Analysis of the results was conducted by generating a plot of time vs. RFU for each sample. This was used as the “progress curve” of the reaction. The slope for the portion of the progress curve that is most linear was then determined. This slope (RFU/min) was used as the initial rate of the reaction. Plots of the inhibitor concentration vs. the initial cleavage rate were then fit to the following equation: y=Vmax*(1−(x^n/(K^n+x^n))), whereby x=inhibitor concentration, y=initial rate, Vmax=initial rate in the absence of inhibitor, n=slope factor, and K=IC50 for the inhibition curve.

[2] = biological target: T2, ADAMTS-4 (Agg-1) (Homo sapiens, UniProt O75173); test: Inhibition of aggrecanase activity of ADAMTS-4 (Agg-1), continuous fluorescent quenched-peptide assay; format: biochemical; conditions: concentration that inhibits 50% of the aggrecanase activity of ADAMTS-4 (Agg-1);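 further: purified enzyme preincubated 10 min with inhibitor at room temperature, then initial substrate cleavage rate (RFU/min) read by fluorescence plate reader versus the uninhibited rate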
T2 sequence (O75173 213-837): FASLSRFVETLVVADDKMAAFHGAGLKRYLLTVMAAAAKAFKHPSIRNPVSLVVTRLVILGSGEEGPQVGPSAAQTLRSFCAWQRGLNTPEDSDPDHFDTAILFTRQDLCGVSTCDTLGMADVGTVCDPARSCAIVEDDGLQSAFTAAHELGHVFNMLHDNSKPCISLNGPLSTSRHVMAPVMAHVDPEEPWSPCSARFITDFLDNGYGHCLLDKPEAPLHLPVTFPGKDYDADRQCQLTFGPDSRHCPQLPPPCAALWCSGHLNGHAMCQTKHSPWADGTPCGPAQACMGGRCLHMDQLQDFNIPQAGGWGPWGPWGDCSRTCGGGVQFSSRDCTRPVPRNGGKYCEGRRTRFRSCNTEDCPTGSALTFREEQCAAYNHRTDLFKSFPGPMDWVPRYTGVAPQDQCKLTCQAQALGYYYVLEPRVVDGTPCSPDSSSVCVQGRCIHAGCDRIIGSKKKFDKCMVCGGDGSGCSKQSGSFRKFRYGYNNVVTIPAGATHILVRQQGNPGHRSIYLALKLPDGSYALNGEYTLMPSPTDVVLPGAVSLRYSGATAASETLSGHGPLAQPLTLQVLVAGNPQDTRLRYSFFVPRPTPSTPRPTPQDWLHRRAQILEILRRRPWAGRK

IC50 [1] [µM]	IC50 [2] [µM]	Compound
> 200	0.1	CC(C)[C@@H](NS(=O)(=O)c1ccc(-c2ccc(COc3ccc(Oc4ccccc4)cc3)cc2)cc1F)C(=O)O
> 100	0.3	COc1ccc(C(=O)c2ccc(OCc3ccc(-c4ccc(S(=O)(=O)N[C@@H](C(=O)O)C(C)C)cc4)cc3)cc2)cc1
13	1.1	CC(C)[C@@H](NS(=O)(=O)c1ccc(-c2ccc(COc3cccc(O)c3)cc2)cc1)C(=O)O
12.6	1	CC(=O)c1cccc(OCc2ccc(-c3ccc(S(=O)(=O)N[C@@H](C(=O)O)C(C)C)cc3)cc2)c1
12	1.9	CC(C)[C@@H](NS(=O)(=O)c1ccc(-c2ccc(COc3cccc4[nH]ccc34)cc2)cc1)C(=O)O
11.3	1.7	CC(C)[C@@H](NS(=O)(=O)c1ccc(-c2ccc(COc3ccc(F)cc3)cc2)cc1)C(=O)O
10.7	1.6	COc1ccc(OCc2ccc(-c3ccc(S(=O)(=O)N[C@@H](C(=O)O)C(C)C)cc3)cc2)cc1
10.6	0.9	CC(C)[C@@H](NS(=O)(=O)c1ccc(-c2ccc(COc3ccc(Oc4ccccn4)cc3)cc2)cc1)C(=O)O
8.2		CC(C)[C@@H](NS(=O)(=O)c1ccc(-c2ccc(COc3cccc(F)c3)cc2)cc1)C(=O)O
7	0.4	CC(=O)c1ccc(OCc2ccc(-c3ccc(S(=O)(=O)N[C@@H](C(=O)O)C(C)C)cc3)cc2)cc1
6.3	1.9	COc1ccc(COc2ccc(-c3ccc(S(=O)(=O)N[C@@H](C(=O)O)C(C)C)cc3)cc2)cc1
5.8	1.8	COc1cccc(OCc2ccc(-c3ccc(S(=O)(=O)N[C@@H](C(=O)O)C(C)C)cc3)cc2)c1
3.4	0.2	CC(C)[C@@H](NS(=O)(=O)c1ccc(-c2ccc(COc3cccc(C(=O)c4ccccc4)c3)cc2)cc1)C(=O)O
2.4	0.4	CC(C)[C@@H](NS(=O)(=O)c1ccc(-c2ccc(COc3cccc(C(=O)C4CCCCC4)c3)cc2)cc1)C(=O)O
2	0.2	CC(C)[C@@H](NS(=O)(=O)c1ccc(-c2ccc(COc3ccc(C(=O)c4ccccc4)cc3)cc2)cc1)C(=O)O
0.4	0.4	CC(C)[C@@H](NS(=O)(=O)c1ccc(-c2ccc(COc3ccc(Oc4ccccc4)cc3)cc2)cc1)C(=O)O
8.4	0.1	CC(C)C(=O)c1ccc(OCc2ccc(-c3ccc(S(=O)(=O)N[C@@H](C(=O)O)C(C)C)cc3)cc2)cc1 [drawing 151]
8.4	0.1	CC(C)C(=O)c1ccc(OCc2ccc(-c3ccc(S(=O)(=O)N[C@@H](C(=O)O)C(C)C)cc3)cc2)cc1 [drawing 152]
2.5	0.1	CC(C)[C@@H](NS(=O)(=O)c1ccc(-c2ccc(COc3ccc(C(=O)c4ccc(F)cc4)cc3)cc2)cc1)C(=O)O [drawing 171]
2.4	0.1	CC(C)[C@@H](NS(=O)(=O)c1ccc(-c2ccc(COc3ccc(C(=O)c4ccc(F)cc4)cc3)cc2)cc1)C(=O)O [drawing 172]

Second part, the compound before the results:

Compound	IC50 [1] [µM]	IC50 [2] [µM]
CC(C)[C@@H](NS(=O)(=O)c1ccc(-c2ccc(COc3ccc(C(=O)N4CCCC4)cc3)cc2)cc1)C(=O)O	67	1.9
Cc1cc(-c2ccc(COc3ccc4c(c3)CCCC4=O)cc2)ccc1S(=O)(=O)N[C@@H](C(=O)O)C(C)C	11.2	0.9
CC(C)[C@@H](NS(=O)(=O)c1ccc(-c2ccc(COc3ccc4c(c3)CCCC4=O)cc2)cc1)C(=O)O	7.5	0.2
CC(C)[C@@H](NS(=O)(=O)c1ccc(-c2ccc(COc3ccc4c(c3)CCCC4=O)cc2)cc1F)C(=O)O	6.6	0.2
CC(C)[C@@H](NS(=O)(=O)c1ccc(-c2ccc(COc3cccc(O)n3)cc2)cc1)C(=O)O	6.5	0.4
CC(C)[C@@H](NS(=O)(=O)c1ccc(-c2ccc(COc3ccc(NC(=O)OC(C)(C)C)cc3)cc2)cc1)C(=O)O	5.4	0.6
CC(C)[C@@H](NS(=O)(=O)c1ccc(-c2ccccc2)cc1)C(=O)O	5	2.6
Cc1cccc(Oc2ccc(OCc3ccc(-c4ccc(S(=O)(=O)N[C@@H](C(=O)O)C(C)C)cc4)cc3)cc2)n1	4	0.7
Cc1cccc(Oc2ccc(OCc3ccc(-c4ccc(S(=O)(=O)N[C@@H](C(=O)O)C(C)C)c(F)c4)cc3)cc2)n1	3.5	0.9
Cc1c(COc2ccc(-c3ccc(S(=O)(=O)N[C@@H](C(=O)O)C(C)C)cc3)cc2)oc2ccccc12	3.4	1.1
Cc1cccc(Oc2ccc(OCc3ccc(-c4ccc(S(=O)(=O)N[C@@H](C(=O)O)C(C)C)c(Cl)c4)cc3)cc2)n1	3.2	0.9
COc1cc(COc2ccc(-c3ccc(S(=O)(=O)N[C@@H](C(=O)O)C(C)C)cc3)cc2)cc(OC)c1	3.2	1.9
CC(C)[C@@H](NS(=O)(=O)c1ccc(-c2ccc(OCc3ccc4c(c3)OCCO4)cc2)cc1)C(=O)O	3	1.4
O=C(O)CC[C@H](NC(=O)c1ccc(-c2ccccc2)cc1)C(=O)NCc1ccc(F)cc1	2.8	0.2
CC(C)[C@@H](NS(=O)(=O)c1ccc(-c2ccc(COc3ccc(C(=O)C4CCCCC4)cc3)cc2)cc1)C(=O)O	2.6	0.1
CC(C)[C@@H](NS(=O)(=O)c1ccc(-c2ccc(COc3ccc4c(c3)CCC4)cc2)cc1)C(=O)O	2.4	0.4
CC(C)[C@@H](NS(=O)(=O)c1ccc(-c2ccc(COc3cc(C(F)(F)F)nc4c(C(F)(F)F)cccc34)cc2)cc1)C(=O)O	1.8	0.2
CC(C)[C@@H](NS(=O)(=O)c1ccc(-c2ccc(COc3ccc(C4CCCC4)cc3)cc2)cc1)C(=O)O	0.8	0.4
